Data reported in PubChem BioAssay (NCI).
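A five-concentration, 48-hour dose response in 96-well plates underlies each endpoint, interpolated linearly between surrounding concentrations. TGI: total growth inhibition.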

How the values were obtained:
Assay in all cases: growth of human tumour cells (NCI), 48 h
ACHN renal = tested on: ACHN renal
NCI-H522 lung = tested on: NCI-H522 lung
CCRF-CEM leukemia = tested on: CCRF-CEM leukemia
TK-10 renal = tested on: TK-10 renal
SN12C renal = tested on: SN12C renal
UACC-62 melanoma = tested on: UACC-62 melanoma
BT-549 breast = tested on: BT-549 breast
NCI-H23 lung = tested on: NCI-H23 lung
SNB-75 CNS = tested on: SNB-75 CNS
HL-60(TB) leukemia = tested on: HL-60(TB) leukemia
HCT-15 colon = tested on: HCT-15 colon
786-0 renal = tested on: 786-0 renal
RXF 393 renal = tested on: RXF 393 renal
SF-295 CNS = tested on: SF-295 CNS
IGROV1 ovarian = tested on: IGROV1 ovarian
OVCAR-4 ovarian = tested on: OVCAR-4 ovarian
NCI-H226 lung = tested on: NCI-H226 lung
CAKI-1 renal = tested on: CAKI-1 renal
DU-145 prostate = tested on: DU-145 prostate
SK-MEL-28 melanoma = tested on: SK-MEL-28 melanoma
OVCAR-8 ovarian = tested on: OVCAR-8 ovarian
NCI-H460 lung = tested on: NCI-H460 lung
RPMI-8226 leukemia = tested on: RPMI-8226 leukemia
SF-268 CNS = tested on: SF-268 CNS
LOX IMVI melanoma = tested on: LOX IMVI melanoma
EKVX NSCLC = tested on: EKVX NSCLC
SK-MEL-2 melanoma = tested on: SK-MEL-2 melanoma
MOLT-4 leukemia = tested on: MOLT-4 leukemia
MALME-3M melanoma = tested on: MALME-3M melanoma
SNB-19 CNS = tested on: SNB-19 CNS
HCT-116 colon = tested on: HCT-116 colon
MDA-MB-435 = tested on: MDA-MB-435
MDA-MB-231 breast = tested on: MDA-MB-231 breast
NCI/ADR-RES ovarian = tested on: NCI/ADR-RES ovarian
HS 578T breast = tested on: HS 578T breast
K-562 leukemia = tested on: K-562 leukemia
PC-3 prostate = tested on: PC-3 prostate
HOP-92 NSCLC = tested on: HOP-92 NSCLC
HCC-2998 colon = tested on: HCC-2998 colon
HT29 colon = tested on: HT29 colon
UACC-257 melanoma = tested on: UACC-257 melanoma
SK-MEL-5 melanoma = tested on: SK-MEL-5 melanoma
MDA-N = tested on: MDA-N
T-47D breast = tested on: T-47D breast
M14 melanoma = tested on: M14 melanoma
KM12 colon = tested on: KM12 colon
SW-620 colon = tested on: SW-620 colon
COLO 205 colon = tested on: COLO 205 colon
MCF7 breast = tested on: MCF7 breast
OVCAR-3 ovarian = tested on: OVCAR-3 ovarian
SR leukemia = tested on: SR leukemia
HOP-62 NSCLC = tested on: HOP-62 NSCLC
OVCAR-5 ovarian = tested on: OVCAR-5 ovarian
UO-31 renal = tested on: UO-31 renal
U251 CNS = tested on: U251 CNS
A549 NSCLC = tested on: A549 NSCLC
SK-OV-3 ovarian = tested on: SK-OV-3 ovarian
SF-539 CNS = tested on: SF-539 CNS
A498 renal = tested on: A498 renal

O=c1cc(N=Nc2ccc(Cl)cc2)[nH]c(=O)[nH]1
TGI (ACHN renal): 5.76 µM
TGI (NCI-H522 lung): 3.63 µM
TGI (CCRF-CEM leukemia): 4.94 µM
TGI (TK-10 renal): 13.5 µM
TGI (SN12C renal): 9.45 µM
TGI (UACC-62 melanoma): 7.11 µM
TGI (BT-549 breast): 8.38 µM
TGI (NCI-H23 lung): 14.1 µM
TGI (SNB-75 CNS): 22.1 µM
TGI (HL-60(TB) leukemia): 3.89 µM
TGI (HCT-15 colon): 4.43 µM
TGI (786-0 renal): 3.21 µM
TGI (RXF 393 renal): 10.2 µM
TGI (SF-295 CNS): 22.3 µM
TGI (IGROV1 ovarian): 8.92 µM
TGI (OVCAR-4 ovarian): 9.03 µM
TGI (NCI-H226 lung): 20.4 µM
TGI (CAKI-1 renal): 4.12 µM
TGI (DU-145 prostate): 22.6 µM
TGI (SK-MEL-28 melanoma): 13.5 µM
TGI (OVCAR-8 ovarian): 12 µM
TGI (NCI-H460 lung): 12.2 µM
TGI (RPMI-8226 leukemia): 12 µM
TGI (SF-268 CNS): 12.3 µM
TGI (LOX IMVI melanoma): 3.45 µM
TGI (EKVX NSCLC): 8.5 µM
TGI (SK-MEL-2 melanoma): 21.5 µM
TGI (MOLT-4 leukemia): 7.5 µM
TGI (MALME-3M melanoma): 8.71 µM
TGI (SNB-19 CNS): 25.2 µM
TGI (HCT-116 colon): 3.87 µM
TGI (MDA-MB-435): 14 µM
TGI (MDA-MB-231 breast): 8.28 µM
TGI (NCI/ADR-RES ovarian): 12.5 µM
TGI (HS 578T breast): 12.7 µM
TGI (K-562 leukemia): > 31.6 µM
TGI (PC-3 prostate): 11.7 µM
TGI (HOP-92 NSCLC): 5.48 µM
TGI (HCC-2998 colon): 9.1 µM
TGI (HT29 colon): 5.44 µM
TGI (UACC-257 melanoma): 10.6 µM
TGI (SK-MEL-5 melanoma): 21.4 µM
TGI (MDA-N): 11 µM
TGI (T-47D breast): 11.9 µM
TGI (M14 melanoma): 9.19 µM
TGI (KM12 colon): 10.6 µM
TGI (SW-620 colon): 5.65 µM
TGI (COLO 205 colon): 5.81 µM
TGI (MCF7 breast): 22.8 µM
TGI (OVCAR-3 ovarian): 9.53 µM
TGI (SR leukemia): 2670 nM
TGI (HOP-62 NSCLC): 30.1 µM
TGI (OVCAR-5 ovarian): 32.2 µM
TGI (UO-31 renal): 10.6 µM
TGI (U251 CNS): 12.6 µM
TGI (A549 NSCLC): 18.8 µM
TGI (SK-OV-3 ovarian): 22 µM
TGI (SF-539 CNS): 10.2 µM

Cc1cc2nc(N3C(=O)/C(=C/c4ccc(Cl)cc4)N=C3c3ccccc3)sc2cc1C
TGI (ACHN renal): > 100 µM
TGI (CCRF-CEM leukemia): 38.7 µM
TGI (TK-10 renal): > 100 µM
TGI (SN12C renal): 87.6 µM
TGI (UACC-62 melanoma): > 100 µM
TGI (BT-549 breast): 81.7 µM
TGI (SNB-75 CNS): 63.9 µM
TGI (HL-60(TB) leukemia): 51.7 µM
TGI (HCT-15 colon): > 100 µM
TGI (786-0 renal): 92.1 µM
TGI (RXF 393 renal): 57.9 µM
TGI (SF-295 CNS): > 100 µM
TGI (IGROV1 ovarian): > 100 µM
TGI (OVCAR-4 ovarian): 91.8 µM
TGI (CAKI-1 renal): > 100 µM
TGI (DU-145 prostate): > 100 µM
TGI (SK-MEL-28 melanoma): > 100 µM
TGI (OVCAR-8 ovarian): > 100 µM
TGI (NCI-H460 lung): > 100 µM
TGI (RPMI-8226 leukemia): > 100 µM
TGI (SF-268 CNS): > 100 µM
TGI (LOX IMVI melanoma): 56.2 µM
TGI (EKVX NSCLC): 91.2 µM
TGI (SK-MEL-2 melanoma): 89.8 µM
TGI (MOLT-4 leukemia): > 100 µM
TGI (SNB-19 CNS): > 100 µM
TGI (HCT-116 colon): 53.9 µM
TGI (MDA-MB-435): 30.7 µM
TGI (MDA-MB-231 breast): > 100 µM
TGI (NCI/ADR-RES ovarian): 87.3 µM
TGI (HS 578T breast): 74.2 µM
TGI (K-562 leukemia): > 100 µM
TGI (PC-3 prostate): 98.9 µM
TGI (HOP-92 NSCLC): 56.5 µM
TGI (HCC-2998 colon): 48.5 µM
TGI (HT29 colon): 63.2 µM
TGI (UACC-257 melanoma): > 100 µM
TGI (SK-MEL-5 melanoma): 43.6 µM
TGI (A498 renal): 85.9 µM
TGI (MDA-N): 30.3 µM
TGI (T-47D breast): > 100 µM
TGI (M14 melanoma): > 100 µM
TGI (KM12 colon): 92.3 µM
TGI (SW-620 colon): > 100 µM
TGI (COLO 205 colon): 43.3 µM
TGI (MCF7 breast): > 100 µM
TGI (OVCAR-3 ovarian): 50 µM
TGI (SR leukemia): > 100000 nM
TGI (HOP-62 NSCLC): > 100 µM
TGI (OVCAR-5 ovarian): 92.7 µM
TGI (UO-31 renal): > 100 µM
TGI (U251 CNS): 84.7 µM
TGI (A549 NSCLC): > 100 µM
TGI (SK-OV-3 ovarian): > 100 µM
TGI (SF-539 CNS): > 100 µM
